# Laboratory results published in patent US7247627B2, “Salts and polymorphs of a pyrrole-substituted indolinone compound” (Pharmacia & Upjohn Company, priority 2003, dated 2007).
# Assay: Chemical stability in temperature and humidity-controlled chamber (Example 2)
# Format: physicochemical
# Design: key to Appearance: U: unchanged
# Protocol: Chemical stability was assessed for two different samples of 5-[(Z)-(5-fluoro-2-oxo-1,2-dihydro-3H-indol-3-ylidene)methyl]-N-[(2S)-2-hydroxy-3-morpholin-4-ylpropyl]-2,4-dimethyl-1H-pyrrole-3-carboxamide maleate salt, polymorph Form 1. Samples were maintained in a temperature and humidity-controlled chamber at 25° C. and 60% relative humidity (Tables 7 and 8) or at 40° C. and 75% relative humidity (Tables 9 and 10). At various time intervals, material was removed and tested for maleate counterion assay, impurities, water content and enantiomeric purity.
# The maleate counterion assay was determined by ion exchange chromatography (IEC).
# A suitable amount of the maleate salt is dissolved in water (Milli Q grade) and analyzed by IEC, and compared to calibration samples. Under these conditions, the peak due to maleic acid has a retention time of about 11 minutes. The amount of maleic acid in the sample is calculated as: % Assay=(Cs/W)×100 where Cs is the concentration of maleic acid found in the sample, and W is the theoretical sample concentration in the aqueous solution.
# The amounts of impurities and degradation products were determined by HPLC, using a Perkin Elmer LC 200 system with a diode array detector. The analytical column was a Waters Xterra RP18, 5 μm, 250×4.6 mm, and the guard column was a Waters Xterra RP18, 5 μm, 20×3.9 mm. Mobile phase A was a mixture of 90% 0.05 M ammonium acetate buffer at pH 5.5 and 10% acetonitrile. Mobile phase B was a mixture of 10% 0.05 M ammonium acetate buffer at pH 5.5 and 90% acetonitrile.
# Flow rate was 1 mL/min, injection volume 30 μL, room temperature, 435 nm detection. Under these conditions, the peak due to the maleate salt has a retention time of about 24 minutes. Impurities are characterized by their relative retention time (RRT). The impurity at RRT=0.26 is the E isomer. The other impurities were not characterized.
# Enantiomeric purity was determined by HPLC, using a Chiralpak AD analytical column, 10 μm, 250×4.6 mm (Daicel Chemical Industries, Ltd.) using an oven temperature of 30° C., a mobile phase of 2-propanol/heptane/diethylamine (50/50/0.1), an isocratic elution mode, a flow rate of 0.5 mL/min, injection volume of 50 μL, detector wavelength of 265 nm, dilution solvent 2-propanol/heptane (50/50) and a sample concentration of 0.3 mg/mL. Under these conditions, the S isomer has a retention time of about 15.5 minutes, and the R isomer has a retention time of about 22 minutes.
# Water content was determined according to USP 25, <921>, Method Ic.
# [1] = 25° C. and 60% Relative Humidity, 1 mo.
# [2] = 25° C. and 60% Relative Humidity, 3 mo.
# [3] = 25° C. and 60% Relative Humidity, 6 mo.
# [4] = 25° C. and 60% Relative Humidity, 9 mo.
# [5] = 25° C. and 60% Relative Humidity, 12 mo.
# [6] = 25° C. and 60% Relative Humidity, Initial
# [7] = 40° C. and 75% Relative Humidity, 1 mo.
# [8] = 40° C. and 75% Relative Humidity, 3 mo.
# [9] = 40° C. and 75% Relative Humidity, 6 mo.
# [10] = 40° C. and 75% Relative Humidity, Initial
smiles,measurement,setting,value
"Cc1[nH]c(/C=C2\C(=O)Nc3ccc(F)cc32)c(C)c1C(=O)NC[C@H](O)CN1CCOCC1 [Sample A, 5-[(Z)-(5-fluoro-2-oxo-1,2-dihydro-3H-indol-3-ylidene)methyl]-N-[(2S)-2-hydroxy-3-morpholin-4-ylpropyl]-2,4-dimethyl-1H-pyrrole-3-carboxamide]",Appearance,[1],U^a
same,Assay (% free base equivalent),[1],97.5 % free base equivalent
same,Enantiomeric Purity (%),[1],>99.9%
same,Impurities (%) RRT 0.26,[1],0.28%
same,Impurities (%) RRT 0.51,[1],0.41%
same,Impurities (%) RRT 0.71,[1],0.06%
same,Impurities (%) RRT 1.53,[1],0.11%
same,Impurities (%) RRT 1.74,[1],0.10%
same,Impurities (%) RRT 1.84,[1],0.13%
same,Total Impurities (%),[1],1.09%
same,Water Content (%),[1],0.53%
same,Appearance,[2],U^a
same,Assay (% free base equivalent),[2],98.4 % free base equivalent
same,Enantiomeric Purity (%),[2],>99.9%
same,Impurities (%) RRT 0.26,[2],0.05%
same,Impurities (%) RRT 0.51,[2],0.40%
same,Impurities (%) RRT 1.53,[2],0.12%
same,Impurities (%) RRT 1.74,[2],0.09%
same,Impurities (%) RRT 1.84,[2],0.12%
same,Total Impurities (%),[2],0.78%
same,Water Content (%),[2],0.68%
same,Appearance,[3],U^a
same,Assay (% free base equivalent),[3],98.4 % free base equivalent
same,Enantiomeric Purity (%),[3],>99.9%
same,Impurities (%) RRT 0.26,[3],0.07%
same,Impurities (%) RRT 0.51,[3],0.42%
same,Impurities (%) RRT 1.53,[3],0.12%
same,Impurities (%) RRT 1.74,[3],0.09%
same,Impurities (%) RRT 1.84,[3],0.12%
same,Total Impurities (%),[3],0.82%
same,Water Content (%),[3],0.46%
same,Appearance,[4],U^a
same,Assay (% free base equivalent),[4],98.4 % free base equivalent
same,Enantiomeric Purity (%),[4],>99.9%
same,Impurities (%) RRT 0.26,[4],0.15%
same,Impurities (%) RRT 0.51,[4],0.36%
same,Impurities (%) RRT 1.53,[4],0.12%
same,Impurities (%) RRT 1.74,[4],0.07%
same,Impurities (%) RRT 1.84,[4],0.10%
same,Total Impurities (%),[4],0.77%
same,Water Content (%),[4],0.42%
same,Appearance,[5],U^a
same,Assay (% free base equivalent),[5],98.2 % free base equivalent
same,Enantiomeric Purity (%),[5],>99.9%
same,Impurities (%) RRT 0.26,[5],0.06%
same,Impurities (%) RRT 0.51,[5],0.33%
same,Impurities (%) RRT 1.53,[5],0.13%
same,Impurities (%) RRT 1.74,[5],0.07%
same,Impurities (%) RRT 1.84,[5],0.11%
same,Total Impurities (%),[5],0.70%
same,Water Content (%),[5],0.74%
same,Assay (% free base equivalent),[6],98.7 % free base equivalent
same,Enantiomeric Purity (%),[6],>99.9%
same,Impurities (%) RRT 0.26,[6],0.09%
same,Impurities (%) RRT 0.51,[6],0.40%
same,Impurities (%) RRT 0.71,[6],0.05%
same,Impurities (%) RRT 1.53,[6],0.10%
same,Impurities (%) RRT 1.74,[6],0.09%
same,Impurities (%) RRT 1.84,[6],0.10%
same,Total Impurities (%),[6],0.83%
same,Water Content (%),[6],0.55%
same,Appearance,[7],U^a
same,Assay (% free base equivalent),[7],97.9 % free base equivalent
same,Enantiomeric Purity (%),[7],100.00%
same,Impurities (%) RRT 0.26,[7],0.29%
same,Impurities (%) RRT 0.51,[7],0.39%
same,Impurities (%) RRT 1.53,[7],0.11%
same,Impurities (%) RRT 1.74,[7],0.08%
same,Impurities (%) RRT 1.84,[7],0.13%
same,Total Impurities (%),[7],1.00%
same,Water Content (%),[7],0.57%
same,Appearance,[8],U^a
same,Assay (% free base equivalent),[8],98.5 % free base equivalent
same,Enantiomeric Purity (%),[8],100.00%
same,Impurities (%) RRT 0.26,[8],0.05%
same,Impurities (%) RRT 0.51,[8],0.40%
same,Impurities (%) RRT 1.53,[8],0.14%
same,Impurities (%) RRT 1.74,[8],0.08%
same,Impurities (%) RRT 1.84,[8],0.12%
same,Total Impurities (%),[8],0.80%
same,Water Content (%),[8],0.69%
same,Appearance,[9],U^a
same,Assay (% free base equivalent),[9],98.0 % free base equivalent
same,Enantiomeric Purity (%),[9],100.00%
same,Impurities (%) RRT 0.26,[9],0.07%
same,Impurities (%) RRT 0.51,[9],0.40%
same,Impurities (%) RRT 1.53,[9],0.15%
same,Impurities (%) RRT 1.74,[9],0.07%
same,Impurities (%) RRT 1.84,[9],0.12%
same,Total Impurities (%),[9],0.81%
same,Water Content (%),[9],0.42%
same,Assay (% free base equivalent),[10],98.7 % free base equivalent
same,Enantiomeric Purity (%),[10],100.00%
same,Impurities (%) RRT 0.26,[10],0.09%
same,Impurities (%) RRT 0.51,[10],0.40%
same,Impurities (%) RRT 0.71,[10],0.05%
same,Impurities (%) RRT 1.53,[10],0.10%
same,Impurities (%) RRT 1.74,[10],0.09%
same,Impurities (%) RRT 1.84,[10],0.10%
same,Total Impurities (%),[10],0.83%
same,Water Content (%),[10],0.55%
